Measurements published in patent US20250282754A1, “BICYCLIC COMPOUNDS AND THEIR USE AS PEST CONTROL AGENTS” (Pl Industries Ltd., priority 2022, published 2025).

What was measured:
Assay type in all cases: in vivo
[1] = system: Myzus persicae; experiment: Myzus persicae leaf dip test (capsicum leaves, third instar nymphs); details: foliar, dead and moribund third instar nymphs 72 h after release, compared to untreated controls, read-out: percent mortality
Description: The leaf dip method was used for testing, wherein the required quantity of the compound was weighed and dissolved in a tube containing a solvent solution. The tube was put on a vortex at 2000 rpm for proper mixing and then diluted with a 0.01% Triton-X solution to the desired test concentration. Capsicum leaves were dipped in the compound solution for 10 seconds, shade dried for 20 min and then placed, with the abaxial side of the leaf up, in single cells of a bio-assay tray containing 4 ml of a solidified 1% agar-agar solution. Known numbers of third instar nymphs of Myzus persicae, collected in petri plates, were released into the cell with the treated leaf and the cell was covered with a perforated lid for better aeration. The trays were kept in a plant growth chamber at a temperature of 25° C. and a relative humidity of 70%. Observations on dead, moribund and alive nymphs were recorded 72 h after the release. Percent mortality was calculated by combining dead and moribund nymphs and comparing the result with the one of the untreated controls. The compounds

[2] = system: Bemisia tabaci; experiment: Bemisia tabaci leaf dip test (brinjal leaves, whitefly adults); details: foliar, dead and moribund whitefly adults 72 h after release, compared to untreated controls, read-out: percent mortality
How it was run: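 Brinjal leaves were dipped 10 s in compound diluted in 0.01% Triton-X, dried, and placed on agar, then exposed to freshly emerged whitefly adults at 25° C, 70% RH. Dead plus moribund adults were counted at 72 h, and percent mortality was calculated relative to untreated controls.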

[3] = system: Nilaparvata lugens; experiment: Nilaparvata lugens seedling dip test (paddy seedlings, third instar nymphs); details: dead and moribund third instar nymphs 72 h after release, compared to untreated controls, read-out: percent mortality
How it was run: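 Paddy seedlings dipped 10 s in compound diluted with 0.01% Triton-X, shade dried, then infested with 15 third-instar nymphs at 25 °C, 75% RH. Mortality (dead plus moribund) scored at 72 h relative to untreated controls.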

Measured: mortality at 300 ppm

COCCS(C)(=O)=Nc1ccc2nn(-c3cccnc3)cc2n1 (stereo not drawn) [Compound 236]
≥ 70%: all assays above

CC(C)S(C)(=O)=Nc1ccc2nn(-c3cccnc3)cc2n1 (stereo not drawn) [Compound 238]
≥ 70%: all assays above

CCS(=O)(=Nc1ccc2nn(-c3cccnc3)cc2n1)C(C)C (stereo not drawn) [Compound 240]
≥ 70%: all assays above

CCOc1nn(-c2ccc3nn(-c4cccnc4)cc3c2)c(=O)n1Cc1ccc(F)cc1 [Compound 337, 5-ethoxy-4-(4-fluorobenzyl)-2-(2-(pyridin-3-yl)-2H-indazol-5-yl)-2,4-dihydro-3H-1,2,4-triazol-3-one]
≥ 70%: all assays above

COc1nn(-c2ccc3nn(-c4cccnc4)cc3c2)c(=O)n1Cc1ccc(Cl)cc1 [Compound 354, 4-(4-chlorobenzyl)-5-methoxy-2-(2-(pyridin-3-yl)-2H-indazol-5-yl)-2,4-dihydro-3H-1,2,4-triazol-3-one]
≥ 70%: all assays above

N=S(=O)(CC1CC1)c1ccc2nn(-c3cccnc3)cc2c1 (stereo not drawn) [Compound 386, (cyclopropylmethyl)(imino)(2-(pyridin-3-yl)-2H-indazol-5-yl)-λ^6-sulfanone]
≥ 70%: all assays above

CCS(=N)(=O)c1ccc2nn(-c3cccnc3)cc2c1 (stereo not drawn) [Compound 387, ethyl(imino)(2-(pyridin-3-yl)-2H-indazol-5-yl)-λ^6-sulfanone]
≥ 70%: all assays above

CC(=O)N=S(=O)(c1ccc2nn(-c3cccnc3)cc2c1)C(C)C (stereo not drawn) [Compound 389]
≥ 70%: all assays above

CCN=S(=O)(c1ccc2nn(-c3cncc(F)c3)cc2c1)C(C)C (stereo not drawn) [Compound 397]
≥ 70%: all assays above

CC(C)S(=O)(=NC1CC1)c1ccc2nn(-c3cccnc3)cc2c1 (stereo not drawn) [Compound 406]
≥ 70%: all assays above

CCN=S(=O)(c1ccc2nn(-c3cncnc3)cc2c1)C(C)C (stereo not drawn) [Compound 419]
≥ 70%: all assays above

CCN=S(=O)(CC)c1ccc2nn(-c3cncnc3)cc2c1 (stereo not drawn) [Compound 457]
≥ 70%: all assays above

CCN=S(=O)(CC)c1ccc2nn(-c3cncc(F)c3)cc2c1 (stereo not drawn) [Compound 461]
≥ 70%: all assays above
